Experimental data from patent publication US8632767B2, “3-[1-(3-haloalkyl)triazolyl]phenyl sulphide derivatives as acaricides and insecticides” (Bayer Intellectual Property GmbH, priority 2009, dated 2014).

Key:
[1] = system: greenhouse red spidermite (Tetranychus urticae); assay: Tetranychus test; OP resistant (TETRUR spray treatment), Example 3; type: in vivo; conditions: foliar, 144 h, spray on bean leaf discs, after 6 days, read-out: effect (mites killed)
Description: (§1) Solvents: 78.0 parts by weight of acetone • • 1.5 parts by weight of dimethylformamide Emulsifier: 0.5 part by weight of alkylaryl polyglycol ether An appropriate preparation of active compound is prepared by mixing 1 part by weight of active compound with the stated amounts of solvent and emulsifier and diluting the concentrate with emulsifier-containing water to the desired concentration. Leaf discs of bean (Phaseolus vulgaris) infested by all stages of the greenhouse red spidermite (Tetranychus urticae) are sprayed with a preparation of active compound at the desired concentration. After 6 days, the effect in % is determined. Here, 100% means that all of the mites have been killed; 0% means that no mites have been killed.

[2] = log P by HPLC on reversed-phase C18, LC-MS, pH 2.7, formic acid (HCOOH); type: physicochemical; conditions: reversed-phase C18 HPLC column; HPLC C18, pH 2.7, 0.1% aqueous formic acid/acetonitrile
Description: (§2) The log P values reported in the table above and in the preparation examples were determined in accordance with EEC Directive 79/831 Annex V.A8 by HPLC (High Performance Liquid Chromatography) on reversed-phase columns (C18), with the following methods: ^[b] The determination is made by LC-MS in the acid range at pH 2.7 with 0.1% aqueous formic acid and acetonitrile (containing 0.1% formic acid) as eluents; linear gradient from 10% acetonitrile to 95% acetonitrile. Calibration took place with unbranched alkan-2-ones (having 3 to 16 carbon atoms) of known log P values (log P values determined from the retention times by linear interpolation between two successive alkanones).

[3] = system: larvae of the mustard beetle (Phaedon cochleariae); assay: Phaedon test (PHAECO spray treatment); type: in vivo; conditions: foliar, 168 h, spray on Chinese cabbage leaf discs, after 7 days, read-out: effect (beetle larvae killed)
Description: Solvents: 78.0 parts by weight of acetone • • 1.5 parts by weight of dimethylformamide Emulsifier: 0.5 part by weight of alkylaryl polyglycol ether An appropriate preparation of active compound is prepared by mixing 1 part by weight of active compound with the stated amounts of solvent and emulsifier and diluting the concentrate with emulsifier-containing water to the desired concentration. Leaf discs of Chinese cabbage (Brassica pekinensis) are sprayed with a preparation of active compound at the desired concentration and, after they have dried, are populated with larvae of the mustard beetle (Phaedon cochleariae). After 7 days, the effect in % is determined. Here, 100% means that all of the beetle larvae have been killed; 0% means that no beetle larvae have been killed.

Meloidogyne incognita = Meloidogyne incognita test (MELGIN); type: in vivo; conditions: 20 ppm, lettuce in sand, after 14 days
Description: Solvents: 78.0 parts by weight of acetone • • 1.5 parts by weight of dimethylformamide Emulsifier: 0.5 part by weight of alkylaryl polyglycol ether An appropriate preparation of active compound is prepared by mixing 1 part by weight of active compound with the stated amounts of solvent and emulsifier and diluting the concentrate with water to the desired concentration. Pots are filled with sand, solution of active compound, meloidogyne incognita egg/larvae suspension, and lettuce seeds. The lettuce seeds germinate and the plants develop. On the roots, the galls develop. After 14 days, the nematicidal effect is determined from the gall formation, in %. Here, 100% means that no galls were found; 0% means that the number of galls on the treated plants corresponds to that for the untreated control.

[4] = log P by HPLC on reversed-phase C18, eluent variant not stated; type: physicochemical; conditions: reversed-phase C18 HPLC column
Description: as §2, with “methods:” for “methods: ^[b] The determination is made by LC-MS in the acid range at pH 2.7 with 0.1% aqueous formic acid and acetonitrile (containing 0.1% formic acid) as eluents; linear gradient from 10% acetonitrile to 95% acetonitrile.”

[5] = system: greenhouse red spidermite (Tetranychus urticae); assay: Tetranychus test; OP resistant (TETRUR spray treatment), Example 5, comparison with prior art; type: in vivo; conditions: 20 g/ha, 6d
Description: as §1, with “the desired time,” for “6 days,”

Boophilus microplus = Boophilus microplus test (BOOPMI injection); type: in vivo; conditions: Rhipicephalus microplus, 168 h; 20 μg/animal, injection into abdomen, after 7 days; read-out: activity (no fertile eggs laid)
Description: Solvent: Dimethyl Sulphoxide An appropriate preparation of active compound is prepared by mixing 10 mg of active compound with 0.5 ml of solvent and diluting the concentrate with solvent to the desired concentration. The solution of active compound is injected into the abdomen (Boophilus microplus) and the animals are transferred into dishes and kept in a controlled atmosphere. The activity is assessed on the basis of deposition of fertile eggs. After 7 days, the effect in % is determined. Here, 100% means that none of the ticks has laid fertile eggs.

[6] = log P by HPLC on reversed-phase C18, pH 2.3, phosphoric acid (H3PO4); type: physicochemical; conditions: reversed-phase C18 HPLC column; HPLC C18, pH 2.3, 0.1% aqueous phosphoric acid/acetonitrile
Description: as §2, with “^[a]” for “^[b]”, “made” for “made by LC-MS”, “2.3” for “2.7”, “phosphoric” for “formic”, “acetonitrile” for “acetonitrile (containing 0.1% formic acid)”

chromatographic logP [2] | chromatographic logP [4] | chromatographic logP [6] | Structure (SMILES) | pest or weed control at 100 g/ha [1] [%] | pest or weed control at 500 g/ha [3] [%] | nematicidal effect (gall formation) (Meloidogyne incognita) [%] | % effect after application [5] | pest or weed control at 500 g/ha [1] [%] | pest or weed control at 0.02 mg (Boophilus microplus) [%]
2.1 |  |  | Cc1ccc(-n2cnc(C(F)F)n2)cc1[S+]([O-])CC(F)(F)F (stereo not shown) [I-A-16] | 100 | 100 | 100 |  |  | 
3.33 |  |  | Cc1cc(C)c(-n2cnc(C(F)F)n2)cc1SCC(F)(F)F [I-A-2, 3-(Difluoromethyl)-1-{2,4-dimethyl-5-[(2,2,2-trifluoroethyl)sulphanyl]phenyl}-1H-1,2,4-triazole] |  |  | 100 | 100 6d % | 100 | 100
2.39 |  |  | [O-][S+](CC(F)(F)F)c1cc(-n2cnc(C(F)F)n2)ccc1Cl (stereo not shown) [I-A-27] | 100 | 100 | 100 |  |  | 100
3.28 |  |  | Cc1cc(F)c(-n2cnc(C(F)F)n2)cc1SCC(F)(F)F [I-A-30] | 100 | 100 | 90 |  |  | 
3.28 |  |  | FC(F)c1ncn(-c2ccc(Cl)c(SCC(F)(F)F)c2)n1 [I-A-9] | 100 | 100 | 100 |  |  | 100

More lines, now with the values behind:

Structure (SMILES) | chromatographic logP [2] | chromatographic logP [4] | chromatographic logP [6] | pest or weed control at 100 g/ha [1] [%] | pest or weed control at 500 g/ha [3] [%] | nematicidal effect (gall formation) (Meloidogyne incognita) [%] | % effect after application [5] | pest or weed control at 500 g/ha [1] [%] | pest or weed control at 0.02 mg (Boophilus microplus) [%]
Cc1ccc(NNC(=O)C(F)F)c(C)c1 [N′-(2,4-Dimethylphenyl)-2,2-difluoroacetohydrazide] |  | 1.8 |  |  |  |  |  |  | 
Cc1cc(C)c(-n2cnc(C(F)(F)F)n2)cc1SCC(F)(F)F [VI-297, reference compound] |  |  |  |  |  |  | 70 6d % |  | 
Cc1cc(C)c(-n2cnc(C(F)F)n2)cc1SCC(F)F [I-A-1] | 3.02 |  | 3.06 | 100 |  |  |  |  | 100
Cc1cc(C)c([S+]([O-])CC(F)(F)F)cc1-n1cnc(C(F)F)n1 (stereo not shown) [I-A-4, 3-(Difluoromethyl)-1-{2,4-dimethyl-5-[(2,2,2-trifluoroethyl)sulphinyl]phenyl}-1H-1,2,4-triazole] | 2.19 |  |  | 100 |  | 100 |  |  | 100
Cc1cc(F)c(-n2cnc(C(F)F)n2)cc1[S+]([O-])CC(F)(F)F (stereo not shown) [I-A-15] | 2.12 |  |  |  | 100 | 90 |  | 100 | 
